In assay [1] the target is D(1A) dopamine receptor (Homo sapiens, UniProt P21728). Format: functional, cell-based.
For assay [2], the target named is Beta-1 adrenergic receptor (Homo sapiens, UniProt P08588). Format: functional.
The target of assay [3] is T1, 5-hydroxytryptamine receptor 1A (Homo sapiens, UniProt P08908).
T1 sequence (P08908 whole entry): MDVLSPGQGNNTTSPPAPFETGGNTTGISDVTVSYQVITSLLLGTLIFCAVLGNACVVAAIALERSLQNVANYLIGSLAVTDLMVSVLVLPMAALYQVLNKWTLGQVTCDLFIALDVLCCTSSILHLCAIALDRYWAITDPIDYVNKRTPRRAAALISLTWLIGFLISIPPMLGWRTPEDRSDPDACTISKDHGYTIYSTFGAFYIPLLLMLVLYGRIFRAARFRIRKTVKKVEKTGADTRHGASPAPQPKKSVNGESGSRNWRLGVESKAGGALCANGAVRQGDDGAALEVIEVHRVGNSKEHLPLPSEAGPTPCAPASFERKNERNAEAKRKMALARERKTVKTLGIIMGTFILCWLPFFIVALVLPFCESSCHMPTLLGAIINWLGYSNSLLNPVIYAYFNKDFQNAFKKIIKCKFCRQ
The assay is classed as functional, cell-based.

For assay [4], the target named is T2, Glucocorticoid receptor (Homo sapiens, UniProt P04150).
T2 sequence (P04150 whole entry): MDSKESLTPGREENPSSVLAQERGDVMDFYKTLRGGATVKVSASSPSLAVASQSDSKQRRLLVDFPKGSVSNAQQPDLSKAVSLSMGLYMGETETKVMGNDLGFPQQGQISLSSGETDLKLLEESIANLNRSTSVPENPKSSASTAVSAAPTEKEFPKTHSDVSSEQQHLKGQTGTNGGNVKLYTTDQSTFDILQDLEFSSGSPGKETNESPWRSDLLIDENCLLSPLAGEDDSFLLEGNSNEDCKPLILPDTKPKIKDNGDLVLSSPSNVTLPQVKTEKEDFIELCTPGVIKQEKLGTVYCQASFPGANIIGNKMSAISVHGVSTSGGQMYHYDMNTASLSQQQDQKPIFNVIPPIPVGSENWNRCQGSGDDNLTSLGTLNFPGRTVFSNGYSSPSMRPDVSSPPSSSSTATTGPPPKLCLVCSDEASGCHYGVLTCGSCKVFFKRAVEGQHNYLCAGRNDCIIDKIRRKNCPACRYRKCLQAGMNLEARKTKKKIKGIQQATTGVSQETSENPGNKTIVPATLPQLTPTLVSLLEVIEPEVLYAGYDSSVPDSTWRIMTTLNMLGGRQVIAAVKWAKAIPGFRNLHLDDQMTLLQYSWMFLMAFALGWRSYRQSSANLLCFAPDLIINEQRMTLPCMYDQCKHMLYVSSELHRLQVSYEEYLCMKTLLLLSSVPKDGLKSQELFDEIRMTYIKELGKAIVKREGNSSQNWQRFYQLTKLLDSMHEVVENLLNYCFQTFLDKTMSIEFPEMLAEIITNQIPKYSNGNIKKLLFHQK

Assay [5] deals with T3, 5-hydroxytryptamine receptor 2C (Homo sapiens, UniProt P28335).
T3 sequence (P28335 whole entry): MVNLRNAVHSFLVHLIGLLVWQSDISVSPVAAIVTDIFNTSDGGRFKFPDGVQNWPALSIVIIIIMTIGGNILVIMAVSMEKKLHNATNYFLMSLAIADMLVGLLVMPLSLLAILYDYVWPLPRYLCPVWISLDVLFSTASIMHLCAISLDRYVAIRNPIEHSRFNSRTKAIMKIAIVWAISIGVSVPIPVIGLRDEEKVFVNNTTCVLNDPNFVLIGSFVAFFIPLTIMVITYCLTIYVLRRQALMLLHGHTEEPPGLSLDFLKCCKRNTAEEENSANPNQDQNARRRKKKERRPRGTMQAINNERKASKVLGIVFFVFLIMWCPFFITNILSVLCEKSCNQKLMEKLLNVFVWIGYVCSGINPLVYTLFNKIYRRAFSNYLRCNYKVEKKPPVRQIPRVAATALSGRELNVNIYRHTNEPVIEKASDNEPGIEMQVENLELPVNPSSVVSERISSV
Further: assay procedure not described here.

Sequence of Beta-1 adrenergic receptor (P08588 whole entry): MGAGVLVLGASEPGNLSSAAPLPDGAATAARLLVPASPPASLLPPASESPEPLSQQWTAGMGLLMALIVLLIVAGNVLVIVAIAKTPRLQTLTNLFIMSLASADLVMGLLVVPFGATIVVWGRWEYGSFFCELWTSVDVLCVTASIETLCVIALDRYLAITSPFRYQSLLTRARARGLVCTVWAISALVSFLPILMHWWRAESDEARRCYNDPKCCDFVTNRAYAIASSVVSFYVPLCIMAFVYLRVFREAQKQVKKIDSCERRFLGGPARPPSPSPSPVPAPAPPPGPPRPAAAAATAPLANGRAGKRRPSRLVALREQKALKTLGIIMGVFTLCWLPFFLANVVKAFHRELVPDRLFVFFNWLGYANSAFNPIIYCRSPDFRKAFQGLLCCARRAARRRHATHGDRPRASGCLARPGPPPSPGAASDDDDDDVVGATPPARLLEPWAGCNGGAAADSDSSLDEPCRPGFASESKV
Sequence of D(1A) dopamine receptor (P21728 whole entry): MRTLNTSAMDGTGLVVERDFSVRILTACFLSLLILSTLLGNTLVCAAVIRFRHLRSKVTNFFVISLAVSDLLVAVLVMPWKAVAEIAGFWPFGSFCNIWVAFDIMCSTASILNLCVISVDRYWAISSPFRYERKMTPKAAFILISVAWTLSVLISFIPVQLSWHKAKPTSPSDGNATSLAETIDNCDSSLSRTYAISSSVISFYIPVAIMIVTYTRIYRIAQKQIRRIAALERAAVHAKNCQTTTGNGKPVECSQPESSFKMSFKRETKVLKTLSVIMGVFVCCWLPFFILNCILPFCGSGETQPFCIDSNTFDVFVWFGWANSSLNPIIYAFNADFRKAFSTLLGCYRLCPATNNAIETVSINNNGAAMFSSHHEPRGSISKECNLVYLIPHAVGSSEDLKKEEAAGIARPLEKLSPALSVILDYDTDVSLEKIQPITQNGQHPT

Take `NCC[C@H](O)C(=O)N[C@@H]1C[C@H](N)[C@@H](O[C@H]2O[C@H](CN)[C@@H](O)[C@H](O)[C@H]2O)[C@H](O)[C@H]1O[C@H]1O[C@H](CO)[C@@H](O)[C@H](N)[C@H]1O` [AMIKACIN]: the AC50 (commonly the concentration giving half of the maximal activity seen) is above 10 µM in assay [1]; above 10 µM in assay [2]; above 10 µM in assay [3]; above 10 µM in assay [4]; above 30 µM in assay [5].

Consider `C=CCC1(CC(C)C)C(=O)NC(=O)NC1=O` [BUTALBITAL], for which the AC50 in assay [1] was above 30 µM; in assay [2], above 10 µM; in assay [3] it was above 10 µM; in assay [4], above 10 µM; in assay [5], above 30 µM.

For `O=C(O)C1=C(CSc2nnnn2CS(=O)(=O)O)CS[C@@H]2[C@H](NC(=O)[C@H](O)c3ccccc3)C(=O)N12` [CEFONICID], the AC50 in assay [1], in assay [2], in assay [4] and in assay [5] was above 30 µM in each case.

Take `Cc1cc(O)c(C(=O)N[C@@H](C(=O)N[C@@H]2C(=O)N3C(C(=O)O)=C(CSc4nnnn4C)CS[C@H]23)c2ccc(O)cc2)cn1` [CEFPIRAMIDE]: the half-maximal activity concentration (AC50) in assay [1], in assay [2], in assay [3], in assay [4] and in assay [5] was above 30 µM throughout.

Take `Nc1nc(/C(=C/CC(=O)O)C(=O)N[C@@H]2C(=O)N3C(C(=O)O)=CCS[C@H]23)cs1` [CEFTIBUTEN]: the AC50 in assay [1], in assay [2], in assay [3], in assay [4] and in assay [5] was above 30 µM each time.

In the case of `C#C[C@]1(O)CC[C@H]2[C@@H]3CCC4=Cc5oncc5C[C@]4(C)[C@H]3CC[C@@]21C` [DANAZOL], the half-maximal activity concentration (AC50) in assay [2] was above 10 µM; in assay [3] it was above 10 µM; in assay [4], 0.111 µM; in assay [5] it was above 30 µM.

Turning to `CC1(C)O[C@@H]2C[C@H]3[C@@H]4CCC5=CC(=O)C=C[C@]5(C)[C@H]4[C@@H](O)C[C@]3(C)[C@]2(C(=O)CO)O1` [DESONIDE], the AC50 in assay [1] was above 10 µM; in assay [2], above 10 µM; in assay [3] it was above 10 µM; in assay [4], 0.016 µM; in assay [5], above 30 µM.

For `C[C@]1(O)CC[C@H]2[C@@H]3CCC4=CC(=O)CC[C@]4(C)[C@@]3(F)[C@@H](O)C[C@@]21C` [FLUOXYMESTERONE], the concentration at half-maximal activity (AC50) in assay [1] is above 30 µM; in assay [2] it was above 10 µM; in assay [3] it was above 10 µM; in assay [4], 0.088 µM; in assay [5], above 30 µM.

Consider `CCCC(=O)O[C@]1(C(=O)CO)CC[C@H]2[C@@H]3CCC4=CC(=O)CC[C@]4(C)[C@H]3[C@@H](O)C[C@@]21C` [HYDROCORTISONE BUTYRATE], for which the half-maximal activity concentration (AC50) was above 10 µM in assay [1]; above 10 µM in assay [2]; above 10 µM in assay [3]; 0.008 µM in assay [4]; above 30 µM in assay [5].

In the case of `CC(C)Cn1cnc2c(N)nc3ccccc3c21` [IMIQUIMOD], the concentration at half-maximal activity (AC50) was above 10 µM in assay [1]; above 10 µM in assay [2]; above 10 µM in assay [3]; above 10 µM in assay [4]; above 30 µM in assay [5].

`CO[C@@H]1[C@@H](O[C@@H]2O[C@H](C)[C@@H](O[C@H]3C[C@@](C)(O)[C@@H](OC(=O)CC(C)C)[C@H](C)O3)[C@H](N(C)C)[C@H]2O)[C@@H](CC=O)C[C@@H](C)[C@@H](O)/C=C/C=C/C[C@@H](C)OC(=O)C[C@H]1OC(C)=O` [JOSAMYCIN]: the AC50 is above 10 µM in assay [1]; above 10 µM in assay [2]; above 10 µM in assay [3]; above 10 µM in assay [4]; above 30 µM in assay [5].

As for `COC(=O)C1=C(C)NC(C)=C(C(=O)OC(C)(C)CN(C)CCC(c2ccccc2)c2ccccc2)C1c1cccc([N+](=O)[O-])c1` (stereo unspecified) [LERCANIDIPINE], the concentration at half-maximal activity (AC50) in assay [1], in assay [2], in assay [3], in assay [4] and in assay [5] was above 30 µM throughout.

On to `Cc1cccc(C(C)c2cnc[nH]2)c1C` (stereo unspecified) [MEDETOMIDINE], for which the AC50 in assay [1], in assay [2], in assay [3], in assay [4] and in assay [5] was above 30 µM in each case.

As to `C[C@H](N)[C@H](O)c1cccc(O)c1` [METARAMINOL], the AC50 in assay [1] is above 30 µM; in assay [2], 14.3 µM; in assay [3], above 10 µM; in assay [4], above 10 µM; in assay [5] it was above 30 µM.

As to `O=C(O)[C@H](CC(=O)N1C[C@H]2CCCC[C@H]2C1)Cc1ccccc1` [MITIGLINIDE], the AC50 in assay [1] was above 10 µM; in assay [2], above 10 µM; in assay [3] it was above 10 µM; in assay [4] it was above 10 µM; in assay [5], above 30 µM.

As for `O=C(O)C[C@H](O)C[C@H](O)/C=C/c1c(C2CC2)nc2ccccc2c1-c1ccc(F)cc1` [PITAVASTATIN], the concentration at half-maximal activity (AC50) in assay [1] is above 10 µM; in assay [2] it was above 30 µM; in assay [3], above 10 µM; in assay [4] it was above 10 µM; in assay [5], above 30 µM.

Regarding `CN1CCC(=C2c3ccccc3CCc3sccc32)CC1` [PIZOTYLINE], the AC50 is above 30 µM in assay [1], above 10 µM in assay [2], above 30 µM in assay [4] and 0.017 µM in assay [5].

Consider `COC(=O)[C@H]1[C@H]2C[C@@H]3c4[nH]c5cc(OC)ccc5c4CCN3C[C@H]2C[C@@H](OC(=O)/C=C/c2cc(OC)c(OC)c(OC)c2)[C@@H]1OC` [RESCINNAMINE], for which the half-maximal activity concentration (AC50) in assay [1] was above 30 µM; in assay [2] it was above 10 µM; in assay [3], above 10 µM; in assay [4], above 10 µM; in assay [5], above 30 µM.

Turning to `C=CCC1(C(C)CC)C(=O)NC(=O)NC1=O` (stereo unspecified) [TALBUTAL], the AC50 is above 10 µM in assay [1]; above 10 µM in assay [2]; above 10 µM in assay [3]; above 10 µM in assay [4]; above 30 µM in assay [5].

Take `C[C@]12CC[C@H]3[C@@H](CCC4=CC(=O)CC[C@@]43C)[C@@H]1CC[C@@H]2O` [TESTOSTERONE]: the AC50 in assay [1] was above 30 µM; in assay [2] it was above 10 µM; in assay [3], above 10 µM; in assay [4], 0.246 µM; in assay [5] it was above 30 µM.

For the compound `CN1C(=O)OC(C)(C)C1=O` [TRIMETHADIONE], the AC50 is above 10 µM in assay [1], above 10 µM in assay [2], above 10 µM in assay [4] and above 30 µM in assay [5].

Take `C[C@H](CSC(=O)c1ccccc1)C(=O)N1C[C@@H](Sc2ccccc2)C[C@H]1C(=O)O` [ZOFENOPRIL]: the AC50 in assay [1] was above 10 µM; in assay [2], above 10 µM; in assay [3] it was above 10 µM; in assay [4], above 10 µM; in assay [5] it was above 30 µM.

The values above are taken from ChEMBL document CHEMBL5291721, “A preclinical secondary pharmacology resource illuminates target-adverse drug reaction associations of marketed drugs” (Nat Commun, 2023).
